Assays:
Human rhinovirus sp. [1] = experiment: Antiviral activity against rhinoviral 29 serotype in a plaque inhibition assay using monolayers of M-HeLa cells; format: functional, organism-based
Human rhinovirus sp. [2] = experiment: Percent inhibitory activity at 8 uM against rhinoviral 13 serotype in a plaque inhibition assay using monolayers of M-HeLa cells; format: functional
Human rhinovirus sp. [3] = experiment: Percent inhibitory activity at 8 uM against rhinoviral 21 serotype in a plaque inhibition assay using monolayers of M-HeLa cells; format: functional
Human rhinovirus sp. [4] = experiment: Percent inhibitory activity at 8 uM against rhinoviral 31 serotype in a plaque inhibition assay using monolayers of M-HeLa cells; format: functional
Human rhinovirus sp. [5] = experiment: Antiviral activity against rhinoviral 4 serotype in a plaque inhibition assay using monolayers of M-HeLa cells; format: functional, organism-based
Human rhinovirus sp. [6] = experiment: Antiviral activity against rhinoviral 12 serotype in a plaque inhibition assay using monolayers of M-HeLa cells; format: functional, organism-based
[7] = Percent inhibitory activity at 8 uM against rhinoviral 2 serotype in a plaque inhibition assay using monolayers of M-HeLa cells; format: functional, Homo sapiens
Human rhinovirus sp. [8] = experiment: Percent inhibitory activity at 8 uM against rhinoviral 5 serotype in a plaque inhibition assay using monolayers of M-HeLa cells; format: functional
Human rhinovirus sp. [9] = experiment: Percent inhibitory activity at 8 uM against rhinoviral 3 serotype in a plaque inhibition assay using monolayers of M-HeLa cells; format: functional
Human rhinovirus sp. [10] = experiment: Antiviral activity against rhinoviral 9 serotype in a plaque inhibition assay using monolayers of M-HeLa cells; format: functional, organism-based
Human rhinovirus sp. [11] = experiment: Antiviral activity against rhinoviral 16 serotype in a plaque inhibition assay using monolayers of M-HeLa cells; format: functional, organism-based
Human rhinovirus sp. [12] = experiment: Percent inhibitory activity at 8 uM against rhinoviral 30 serotype in a plaque inhibition assay using monolayers of M-HeLa cells; format: functional
Human rhinovirus sp. [13] = experiment: Percent inhibitory activity at 8 uM against rhinoviral 19s erotype in a plaque inhibition assay using monolayers of M-HeLa cells; format: functional
Human rhinovirus sp. [14] = experiment: Antiviral activity against rhinoviral 15 serotype in a plaque inhibition assay using monolayers of M-HeLa cells; format: functional, organism-based
Human rhinovirus sp. [15] = experiment: Antiviral activity against rhinoviral 8 serotype in a plaque inhibition assay using monolayers of M-HeLa cells; format: functional, organism-based
Human rhinovirus sp. [16] = experiment: Antiviral activity against rhinoviral 14 serotype in a plaque inhibition assay using monolayers of M-HeLa cells; format: functional, organism-based
Human rhinovirus sp. [17] = experiment: Antiviral activity against rhinoviral-1A serotype in a plaque inhibition assay using monolayers of M-HeLa cells; format: functional, organism-based
Human rhinovirus sp. [18] = experiment: Antiviral activity against rhinoviral-1B serotype in a plaque inhibition assay using monolayers of M-HeLa cells; format: functional, organism-based
[19] = Antiviral activity against rhinoviral 18 serotype in a plaque inhibition assay using monolayers of M-HeLa cells at 8 uM; format: functional, cell-based; settings: Homo sapiens
Human rhinovirus sp. [20] = experiment: Percent inhibitory activity at 8 uM against rhinoviral 4 serotype in a plaque inhibition assay using monolayers of M-HeLa cells; format: functional
[21] = Percent inhibitory activity at 8 uM against rhinoviral-19 serotype in a plaque inhibition assay using monolayers of M-HeLa cells; format: functional, Homo sapiens
Human rhinovirus sp. [22] = experiment: Antiviral activity against rhinoviral 30 serotype in a plaque inhibition assay using monolayers of M-HeLa cells; format: functional, organism-based
Human rhinovirus sp. [23] = experiment: Percent inhibitory activity at 8 uM against rhinoviral 15 serotype in a plaque inhibition assay using monolayers of M-HeLa cells; format: functional
Human rhinovirus sp. [24] = experiment: Antiviral activity against rhinoviral 31 serotype in a plaque inhibition assay using monolayers of M-HeLa cells; format: functional, organism-based
Human rhinovirus sp. [25] = experiment: Antiviral activity against rhinoviral-18 serotype in a plaque inhibition assay using monolayers of M-HeLa cells; format: functional, organism-based

SMILES	IC50 (Human rhinovirus sp. [1])	Inhibition (Human rhinovirus sp. [2])	Inhibition (Human rhinovirus sp. [3])	IC50 (Human rhinovirus sp. [6])	Inhibition [7]	Inhibition (Human rhinovirus sp. [8])	Inhibition (Human rhinovirus sp. [9])	IC50 (Human rhinovirus sp. [10])	IC50 (Human rhinovirus sp. [11])	IC50 (Human rhinovirus sp. [15])	IC50 (Human rhinovirus sp. [16])	IC50 (Human rhinovirus sp. [17])	IC50 (Human rhinovirus sp. [18])	further results
CN(C)c1nc(C(F)(F)F)nc2c1ncn2Cc1ccccc1	3.2 µM	22%	28%	3.8 µM	33%	33%	20%	0.46 µM	0.96 µM	8 µM	8 µM	1.1 µM	0.04 µM	Inhibition (Human rhinovirus sp. [4]): 37%; IC50 (Human rhinovirus sp. [5]): 8.8 µM; Inhibition (Human rhinovirus sp. [12]): 19%; Inhibition (Human rhinovirus sp. [13]): 32%; IC50 (Human rhinovirus sp. [14]): 4.8 µM; IC50 [19]: 10 µM
CN(C)c1nc(C(F)(F)F)nc2c1ncn2Cc1ccc(Cl)c(NC=O)c1	6.3 µM	43%	20%	5 µM	35%	36%	40%	1.8 µM	1.9 µM	6.7 µM	9.6 µM	8 µM	0.56 µM	Inhibition (Human rhinovirus sp. [20]): 34%; Inhibition [21]: 18%; IC50 (Human rhinovirus sp. [22]): 6.5 µM; Inhibition (Human rhinovirus sp. [23]): 29%; IC50 (Human rhinovirus sp. [24]): 8 µM; IC50 (Human rhinovirus sp. [25]): 8.7 µM
